Data: patent publication US4207419A, “Prostaglandin derivatives” (American Home Products Corporation, priority 1977, dated 1980)

Tests used:
[1] = Hypotensive effects in the anesthetized dog by the intravenous route; format: in vivo; conditions: average of two animals
Protocol: In the use of the compounds of the invention to produce hypotensive effects in warm-blooded animals, administration by the injectable route is preferred, preferably the intravenous route.
Thus in the anesthetized dog by the intravenous route the dose to produce hypotension is from about 1 μg/kg. to about 200 μg/kg. and preferably from about 10 μg/kg. to about 100 μg/kg. Using this procedure the following results were obtained:
*Average of two animals.

[2] = tested on: bronchoconstricting effects of a standard dose of acetylcholine; assay: Bronchodilation upon aerosol inhalation, method of Rosenthale et al.; format: in vivo; conditions: guinea pig, i.v. acetylcholine producing ca. 30% bronchoconstriction
Source text: In using the compounds of the invention to produce bronchodilating effects in warm-blooded animals, they may be administered in a variety of dosage forms: oral, injectable, and aerosol inhalation. Aerosol inhalation is a preferred method because of its rapid onset of action, great potency, and specificity of action. The particular dosage to obtain the bronchodilating effect will vary with the particular compound employed, the particular animal involved, and the degree of bronchodilation desired. In the guinea pig, by aerosol inhalation, the dose to produce bronchodilation is from about 0.15 micrograms to about 25 micrograms, and preferably from about 0.15 to about 15 micrograms. The bronchodilation produced upon aerosol inhalation can be observed by the method of Rosenthale et al., J. Pharmacol. Exp. Ther., 178, 541 (1971). Using this procedure the following results were obtained:
*The dose (i.v. of acetylcholine which produces a ca. 30%

Structure (SMILES) | Δ B.P. ([1]; dose 10 μg/kg.) [mm. Hg.] | Δ B.P. ([1]; dose 100 μg/kg.) [mm. Hg.] | Percent Inhibition of the bronchoconstricting effects of a standard dose of acetylcholine ([2]; dose 0.15 μg) [%] | Percent Inhibition of the bronchoconstricting effects of a standard dose of acetylcholine ([2]; dose 1.50 μg) [%] | Percent Inhibition of the bronchoconstricting effects of a standard dose of acetylcholine ([2]; dose 15 μg) [%]
CC(C)(c1ccccc1)[C@H](O)CC[C@H]1CCC(=O)[C@@H]1CCCCCCC(=O)O (relative stereo) [dl-2β-[(3R)-3-Hydroxy-4,4-Dimethyl-4-Phenyl-1-Butyl]-5-Oxo-1α-Cyclopentane Heptanoic Acid] | -14 | -26 | – | – | –
CC(C)(Cc1ccccc1)[C@H](O)/C=C/[C@H]1CCC(=O)[C@@H]1CCCCCCC(=O)O (relative stereo) [dl-2β-[(3R)-3-Hydroxy-4,4-Dimethyl-5-Phenyl-trans-1-Pentenyl]-5-Oxo-Cyclopentane Heptanoic Acid] | – | – | 46 | 66 | 60
CC(C)(c1ccccc1)[C@H](O)/C=C/[C@H]1CCC(=O)[C@@H]1C/C=C\CCCC(=O)O (relative stereo) [dl-7-{2β-[(3R)-3-Hydroxy-4,4-Dimethyl-4-Phenyl-trans-1-Butenyl]-5-Oxo-1α-Cyclopentyl}-cis-5-Heptenoic Acid] | -30 | – | – | – | –
